Experimental data reported in PubChem BioAssay (NCI).
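How tested: cells in 96-well plates exposed to compound for 48 hours at five concentrations. Here, GI50 denotes the concentration required for 50% inhibition of growth. TGI is the concentration that stops growth completely.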

What was measured:
Test in all cases: DTP human tumour cell line panel, 48 h
786-0 renal = system: 786-0 renal
A498 renal = system: A498 renal
A549 NSCLC = system: A549 NSCLC
ACHN renal = system: ACHN renal
BT-549 breast = system: BT-549 breast
CAKI-1 renal = system: CAKI-1 renal
CCRF-CEM leukemia = system: CCRF-CEM leukemia
COLO 205 colon = system: COLO 205 colon
DU-145 prostate = system: DU-145 prostate
EKVX NSCLC = system: EKVX NSCLC
HCC-2998 colon = system: HCC-2998 colon
HCT-116 colon = system: HCT-116 colon
HCT-15 colon = system: HCT-15 colon
HL-60(TB) leukemia = system: HL-60(TB) leukemia
HOP-62 NSCLC = system: HOP-62 NSCLC
HOP-92 NSCLC = system: HOP-92 NSCLC
HS 578T breast = system: HS 578T breast
HT29 colon = system: HT29 colon
IGROV1 ovarian = system: IGROV1 ovarian
K-562 leukemia = system: K-562 leukemia
KM12 colon = system: KM12 colon
LOX IMVI melanoma = system: LOX IMVI melanoma
M14 melanoma = system: M14 melanoma
MCF7 breast = system: MCF7 breast
MDA-MB-231 breast = system: MDA-MB-231 breast
MDA-MB-435 = system: MDA-MB-435
MOLT-4 leukemia = system: MOLT-4 leukemia
NCI-H226 lung = system: NCI-H226 lung
NCI-H23 lung = system: NCI-H23 lung
NCI-H460 lung = system: NCI-H460 lung
NCI-H522 lung = system: NCI-H522 lung
NCI/ADR-RES ovarian = system: NCI/ADR-RES ovarian
OVCAR-3 ovarian = system: OVCAR-3 ovarian
OVCAR-4 ovarian = system: OVCAR-4 ovarian
OVCAR-5 ovarian = system: OVCAR-5 ovarian
OVCAR-8 ovarian = system: OVCAR-8 ovarian
PC-3 prostate = system: PC-3 prostate
RPMI-8226 leukemia = system: RPMI-8226 leukemia
RXF 393 renal = system: RXF 393 renal
SF-268 CNS = system: SF-268 CNS
SF-295 CNS = system: SF-295 CNS
SF-539 CNS = system: SF-539 CNS
SK-MEL-2 melanoma = system: SK-MEL-2 melanoma
SK-MEL-28 melanoma = system: SK-MEL-28 melanoma
SK-MEL-5 melanoma = system: SK-MEL-5 melanoma
SK-OV-3 ovarian = system: SK-OV-3 ovarian
SN12C renal = system: SN12C renal
SNB-19 CNS = system: SNB-19 CNS
SNB-75 CNS = system: SNB-75 CNS
SR leukemia = system: SR leukemia
SW-620 colon = system: SW-620 colon
T-47D breast = system: T-47D breast
TK-10 renal = system: TK-10 renal
U251 CNS = system: U251 CNS
UACC-257 melanoma = system: UACC-257 melanoma
UACC-62 melanoma = system: UACC-62 melanoma
UO-31 renal = system: UO-31 renal

SMILES: O=C1OCC2=C1C(c1cccc(F)c1)c1cc3c(cc1N2CCO)CCC3 (stereo not drawn)
- GI50 (786-0 renal): 71.8 nM
- TGI (786-0 renal): > 50 µM
- GI50 (A498 renal): 13.8 nM
- TGI (A498 renal): 261 nM
- GI50 (A549 NSCLC): 113 nM
- TGI (A549 NSCLC): > 50 µM
- GI50 (ACHN renal): 129 nM
- TGI (ACHN renal): > 50 µM
- GI50 (BT-549 breast): 161 nM
- TGI (BT-549 breast): 6.95 µM
- GI50 (CAKI-1 renal): 38.1 nM
- TGI (CAKI-1 renal): > 33.3 µM
- GI50 (CCRF-CEM leukemia): 168 nM
- TGI (CCRF-CEM leukemia): > 50 µM
- GI50 (COLO 205 colon): 152 nM
- GI50 (DU-145 prostate): 162 nM
- TGI (DU-145 prostate): > 24.4 µM
- GI50 (EKVX NSCLC): 162 nM
- TGI (EKVX NSCLC): > 50 µM
- GI50 (HCC-2998 colon): 148 nM
- TGI (HCC-2998 colon): 11 µM
- GI50 (HCT-116 colon): 81.9 nM
- TGI (HCT-116 colon): > 50 µM
- GI50 (HCT-15 colon): 46.4 nM
- TGI (HCT-15 colon): > 20.2 µM
- GI50 (HL-60(TB) leukemia): 77.3 nM
- TGI (HL-60(TB) leukemia): 376 nM
- GI50 (HOP-62 NSCLC): 798 nM
- TGI (HOP-62 NSCLC): > 50 µM
- GI50 (HOP-92 NSCLC): 1620 nM
- TGI (HOP-92 NSCLC): 49.6 µM
- GI50 (HS 578T breast): 50.9 nM
- TGI (HS 578T breast): > 30.6 µM
- GI50 (HT29 colon): 92.2 nM
- TGI (HT29 colon): > 18.9 µM
- GI50 (IGROV1 ovarian): 81.7 nM
- TGI (IGROV1 ovarian): > 50 µM
- GI50 (K-562 leukemia): 28 nM
- TGI (K-562 leukemia): > 50 µM
- GI50 (KM12 colon): 55.9 nM
- TGI (KM12 colon): > 50 µM
- GI50 (LOX IMVI melanoma): 95.8 nM
- TGI (LOX IMVI melanoma): 10.1 µM
- GI50 (M14 melanoma): 49.1 nM
- TGI (M14 melanoma): > 20.9 µM
- GI50 (MCF7 breast): 22.9 nM
- TGI (MCF7 breast): > 29 µM
- GI50 (MDA-MB-231 breast): 218 nM
- TGI (MDA-MB-231 breast): > 22.2 µM
- GI50 (MDA-MB-435): 16.6 nM
- TGI (MDA-MB-435): 68.4 nM
- GI50 (MOLT-4 leukemia): 237 nM
- TGI (MOLT-4 leukemia): > 50 µM
- GI50 (NCI-H226 lung): 1020 nM
- TGI (NCI-H226 lung): > 47.6 µM
- GI50 (NCI-H23 lung): 248 nM
- TGI (NCI-H23 lung): > 50 µM
- GI50 (NCI-H460 lung): 60.9 nM
- TGI (NCI-H460 lung): 6.97 µM
- GI50 (NCI-H522 lung): 16.9 nM
- TGI (NCI-H522 lung): 704 nM
- GI50 (NCI/ADR-RES ovarian): 43.5 nM
- TGI (NCI/ADR-RES ovarian): > 50 µM
- GI50 (OVCAR-3 ovarian): 29.3 nM
- TGI (OVCAR-3 ovarian): 3.92 µM
- GI50 (OVCAR-4 ovarian): 1760 nM
- TGI (OVCAR-4 ovarian): > 50 µM
- GI50 (OVCAR-5 ovarian): 205 nM
- TGI (OVCAR-5 ovarian): > 50 µM
- GI50 (OVCAR-8 ovarian): 139 nM
- TGI (OVCAR-8 ovarian): > 50 µM
- GI50 (PC-3 prostate): 65.7 nM
- TGI (PC-3 prostate): > 50 µM
- GI50 (RPMI-8226 leukemia): 167 nM
- TGI (RPMI-8226 leukemia): 29.7 µM
- GI50 (RXF 393 renal): 91.4 nM
- TGI (RXF 393 renal): > 50 µM
- GI50 (SF-268 CNS): 122 nM
- TGI (SF-268 CNS): 25.2 µM
- GI50 (SF-295 CNS): 23.3 nM
- TGI (SF-295 CNS): 10.8 µM
- GI50 (SF-539 CNS): 49.1 nM
- TGI (SF-539 CNS): 434 nM
- GI50 (SK-MEL-2 melanoma): 1070 nM
- TGI (SK-MEL-2 melanoma): 39 µM
- GI50 (SK-MEL-28 melanoma): 655 nM
- TGI (SK-MEL-28 melanoma): > 50 µM
- GI50 (SK-MEL-5 melanoma): 62.6 nM
- TGI (SK-MEL-5 melanoma): 2580 nM
- GI50 (SK-OV-3 ovarian): 844 nM
- TGI (SK-OV-3 ovarian): > 50 µM
- GI50 (SN12C renal): 233 nM
- TGI (SN12C renal): > 50 µM
- GI50 (SNB-19 CNS): 113 nM
- TGI (SNB-19 CNS): > 50 µM
- GI50 (SNB-75 CNS): 13.6 nM
- TGI (SNB-75 CNS): 47.4 µM
- GI50 (SR leukemia): 28.5 nM
- TGI (SR leukemia): 37.4 µM
- GI50 (SW-620 colon): 57.1 nM
- TGI (SW-620 colon): > 50 µM
- GI50 (T-47D breast): 2930 nM
- TGI (T-47D breast): > 50 µM
- GI50 (TK-10 renal): 433 nM
- TGI (TK-10 renal): > 50 µM
- GI50 (U251 CNS): 90.4 nM
- TGI (U251 CNS): > 34 µM
- GI50 (UACC-257 melanoma): 12.2 µM
- TGI (UACC-257 melanoma): > 50 µM
- GI50 (UACC-62 melanoma): 22.7 nM
- TGI (UACC-62 melanoma): 33.4 µM
- GI50 (UO-31 renal): 107 nM
- TGI (UO-31 renal): > 42.5 µM
